Assay [1] has as its target T1, cathepsin K (mature, mCatK) (Homo sapiens, UniProt P43235).
T1 construct: gene CTSK; mature CatK, model residues Ala1 to Met215 plus N-terminal Gly-Arg (98p–99p) (from recombinant zymogen expressed in Pichia pastoris)
T1 sequence (P43235 113-329): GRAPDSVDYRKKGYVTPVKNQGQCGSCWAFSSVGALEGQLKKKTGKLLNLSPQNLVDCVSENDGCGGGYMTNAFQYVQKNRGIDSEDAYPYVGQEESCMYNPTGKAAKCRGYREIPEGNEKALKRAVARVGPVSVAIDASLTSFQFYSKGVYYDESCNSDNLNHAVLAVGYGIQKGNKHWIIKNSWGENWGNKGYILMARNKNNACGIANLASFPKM
Kind of assay: crystal structure […] Å (also with iCatK, 7QBO); Ki by slow-binding fluorogenic enzyme assay. The format is biochemical. The settings on record: read-out: mCatK inhibition^a / Ki.

Assay [2] deals with T2, cathepsin K (mature, mCatK) (Homo sapiens, UniProt P43235).
T2 construct: gene CTSK; mature CatK, model residues Ala1 to Met215 (from recombinant zymogen expressed in Pichia pastoris)
T2 sequence (P43235 115-329): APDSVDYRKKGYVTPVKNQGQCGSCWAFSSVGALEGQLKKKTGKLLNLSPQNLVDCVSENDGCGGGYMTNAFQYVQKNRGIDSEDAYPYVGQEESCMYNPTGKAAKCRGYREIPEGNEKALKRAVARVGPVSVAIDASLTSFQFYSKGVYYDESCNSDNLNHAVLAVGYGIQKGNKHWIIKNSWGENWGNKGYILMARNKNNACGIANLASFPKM
Briefly: crystal structure […] Å (also with iCatK, 7QBM); Ki by fluorogenic enzyme assay (Morrison). The format is biochemical. The settings on record: read-out: mCatK inhibition^a / Ki.

As for `CN(C#N)N(C)C(=O)[C@H](Cc1ccccc1)NC(=O)OCc1ccccc1` [Gü1303], the Ki in assay [1] amounted to 910 pM.
Regarding `CN(Cc1ccccc1)C(=O)CN(C#N)NC(=O)OC(C)(C)C` [Gü2602], the Ki in assay [2] was determined as 13 pM.

(Values after publication PMC8843313, “Highly potent inhibitors of cathepsin K with a differently positioned cyanohydrazide warhead: structural analysis of binding mode to mature and zymogen-like enzymes” (Journal of Enzyme Inhibition and Medicinal Chemistry, 2022).)
